Data published in patent US8309718B2, “4-pyrazolyl-N-arylpyrimidin-2-amines and 4-pyrazolyl-N-heteroarylpyrimidin-2-amines as janus kinase inhibitors” (Incyte Corporation, priority 2007, dated 2012).

target: T1, human JAK2 (Homo sapiens, UniProt O60674); assay: In vitro JAK kinase assay (HTRF, phosphorylation of biotinylated peptide); assay type: biochemical; settings: catalytic domain a.a. 828-1132, 30 μM ATP, 500 nM peptide, room temperature 1 hr; read-out: JAK-2 IC50
T1 construct: JAK2 (a.a. 828-1132); His tag (N); made in house; host or cells: insect cells (baculovirus)
T1 sequence (O60674 828-1132): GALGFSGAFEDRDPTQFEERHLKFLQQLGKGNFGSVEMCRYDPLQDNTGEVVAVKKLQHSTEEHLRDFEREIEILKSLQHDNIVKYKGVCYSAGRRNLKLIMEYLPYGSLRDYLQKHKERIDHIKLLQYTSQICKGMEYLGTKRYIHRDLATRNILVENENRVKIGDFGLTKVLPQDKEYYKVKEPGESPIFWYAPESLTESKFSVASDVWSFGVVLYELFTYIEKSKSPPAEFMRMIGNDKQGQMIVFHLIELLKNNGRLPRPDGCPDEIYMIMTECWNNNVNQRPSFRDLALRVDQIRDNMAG
Procedure: Compounds herein were tested for inhibitory activity of JAK targets according to the following in vitro assay described in Park et al, Analytical Biochemistry 1999, 269, 94-104. The catalytic domains of human JAK1 (a.a. 837-1142), JAK2 (a.a. 828-1132) and JAK3 (a.a. 781-1124) with an N-terminal His tag were expressed using baculovirus in insect cells and purified. The catalytic activity of JAK1, JAK2 or JAK3 was assayed by measuring the phosphorylation of a biotinylated peptide. The phosphorylated peptide was detected by homogenous time resolved fluorescence (HTRF). IC50s of compounds were measured for each kinase in the reactions that contain the enzyme, ATP and 500 nM peptide in 50 mM Tris (pH 7.8) buffer with 100 mM NaCl, 5 mM DTT, and 0.1 mg/mL (0.01%) BSA. The ATP concentration in the reactions was 90 μM for JAK1, 30 μM for Jak2 and 3 μM for JAK3. Reactions were carried out at room temperature for 1 hr and then stopped with 20 μL 45 mM EDTA, 300 nM SA-APC, 6 nM Eu-Py20 in assay buffer (Perkin Elmer, Boston, Mass.). Binding to the Europium labeled antibody took place for 40 minutes and HTRF signal was measured on a Fusion plate reader (Perkin Elmer, Boston, Mass.). Certain of the above compounds were tested according to this assay.

| IC50 [µM] | SMILES |
| --- | --- |
| < 0.1 | N#CCC1(n2cc(-c3ccnc(Nc4cccc(-c5nnn[nH]5)c4)n3)cn2)CCN(C(=O)c2ccno2)CC1 (racemic) [Example 14, 2-(4-(4-(2-(3-(1H-tetrazol-5-yl)phenylamino)pyrimidin-4-yl)-1H-pyrazol-1-yl)-1-(isoxazole-5-carbonyl)piperidin-4-yl)acetonitrile] |
| < 0.1 | N#CCC1(n2cc(-c3ccnc(Nc4ccc(S(=O)(=O)N5CCOCC5)cc4)n3)cn2)CCN(C(=O)c2ccno2)CC1 (racemic) [Example 15, 2-(1-(isoxazole-5-carbonyl)-4-(4-(2-(4-(morpholinosulfonyl)phenylamino)pyrimidin-4-yl)-1H-pyrazol-1-yl)piperidin-4-yl)acetonitrile] |
| < 0.1 | COc1ccc(Nc2nccc(-c3cnn(C4(CC#N)CCN(C(=O)c5ccno5)CC4)c3)n2)cn1 (racemic) [Example 16, 2-(1-(isoxazole-5-carbonyl)-4-(4-(2-(6-methoxypyridin-3-ylamino)pyrimidin-4-yl)-1H-pyrazol-1-yl)piperidin-4-yl)acetonitrile] |
| < 0.1 | N#CCC1(n2cc(-c3ccnc(Nc4ccc(-n5cccn5)cc4)n3)cn2)CN(S(=O)(=O)C2CC2)C1 (racemic) [Example 17, 2-(3-(4-(2-(4-(1H-pyrazol-1-yl)phenylamino)pyrimidin-4-yl)-1H-pyrazol-1-yl)-1-(cyclopropylsulfonyl)azetidin-3-yl)acetonitrile] |
| < 0.1 | N#CCC(C1CCNCC1)n1cc(-c2ccnc(Nc3ccc(N4CCOCC4)cc3)n2)cn1 (racemic) [Example 22, 3-(4-(2-(4-morpholinophenylamino)pyrimidin-4-yl)-1H-pyrazol-1-yl)-3-(piperidin-4-yl)propanenitrile] |
| < 0.1 | N#CCC(C1CCN(c2ncc(F)cn2)CC1)n1cc(-c2ccnc(Nc3ccc(N4CCOCC4)cc3)n2)cn1 (racemic) [Example 23, 3-(1-(5-fluoropyrimidin-2-yl)piperidin-4-yl)-3-(4-(2-(4-morpholinophenylamino)pyrimidin-4-yl)-1H-pyrazol-1-yl)propanenitrile] |
| < 0.1 | CS(=O)(=O)N1CCC(C(CC#N)n2cc(-c3ccnc(Nc4ccc(N5CCOCC5)cc4)n3)cn2)CC1 (racemic) [Example 24, 3-(1-(methylsulfonyl)piperidin-4-yl)-3-(4-(2-(4-morpholinophenylamino)pyrimidin-4-yl)-1H-pyrazol-1-yl)propanenitrile] |
| < 0.1 | N#CCC(C1CCN(S(=O)(=O)c2ccccc2)CC1)n1cc(-c2ccnc(Nc3ccc(N4CCOCC4)cc3)n2)cn1 (racemic) [Example 25, 3-(4-(2-(4-morpholinophenylamino)pyrimidin-4-yl)-1H-pyrazol-1-yl)-3-(1-(phenylsulfonyl)piperidin-4-yl)propanenitrile] |
| < 0.1 | CC(=O)N1CCC(C(CC#N)n2cc(-c3ccnc(Nc4ccc(N5CCOCC5)cc4)n3)cn2)CC1 (racemic) [Example 26, 3-(1-acetylpiperidin-4-yl)-3-(4-(2-(4-morpholinophenylamino)pyrimidin-4-yl)-1H-pyrazol-1-yl)propanenitrile] |
| < 0.1 | N#CCC(C1CCN(C(=O)c2ccccc2)CC1)n1cc(-c2ccnc(Nc3ccc(N4CCOCC4)cc3)n2)cn1 (racemic) [Example 27, 3-(1-benzoylpiperidin-4-yl)-3-(4-(2-(4-morpholinophenylamino)pyrimidin-4-yl)-1H-pyrazol-1-yl)propanenitrile] |
| < 0.1 | N#CCC(C1CCCC1)n1cc(-c2ccnc(Nc3ccc(C(N)=O)cc3)n2)cn1 (racemic) [Example 33, 4-(4-(1-(2-cyano-1-cyclopentylethyl)-1H-pyrazol-4-yl)pyrimidin-2-ylamino)benzamide] |
| < 0.1 | N#CCC(C1CCCC1)n1cc(-c2ccnc(Nc3ccc(-n4cccn4)cc3)n2)cn1 (racemic) [Example 34, 3-(4-(2-(4-(1H-pyrazol-1-yl)phenylamino)pyrimidin-4-yl)-1H-pyrazol-1-yl)-3-cyclopentylpropanenitrile] |
